Reference: patent US9120798B2, “Amino-heteroaryl 7-hydroxy-spiropiperidine indolinyl antagonists of P2Y1 receptor” (priority 2012, dated 2015)
Like-named read-outs stand apart in the source and are kept apart here.

Columns and labels:
[1] = molecular target: cloned human P2Y1 receptors (Homo sapiens (Human), UniProt P47900); assay: Binding Assay B: Scintillation Proximity Assay (SPA) for P2Y1 binding
Description: Binding Assay B—Scintillation Proximity Assay (SPA) for P2Y1 Binding
A SPA membrane binding assay was used to identify inhibitors of [^33P] […] Binding reactions were performed in 384-well OptiPlates (PerkinElmer Life Sciences, Cat #6007299) in a volume of 50 μL containing ˜15 fmol of P2Y1 receptor (1.7 μg of total protein), 0.3 nM [^33P] […] Reactions were allowed to proceed to completion at room temperature for 1 hour followed by centrifugation of the plate for 5 min. About 40 μL of the aqueous solution was aspirated. Plates were sealed and the [^33P]

[2] = test system: human platelet rich plasma (PRP); assay: ADP induced platelet aggregation assay; assay type: cell-based; settings: 5 min, read-out: PA IC50 (μM) @ 10 μM ADP
Description: ADP Induced Platelet Aggregation Assay
The ability of P2Y1 antagonists covered in the present invention to inhibit platelet aggregation induced by 10 μM ADP was tested using human platelet rich plasma (PRP) as described in Platelet Protocols: Research and Clinical Laboratory Procedures (White, M. M. et al., Academic Press (1999)). Human blood was collected in 30 μM (final concentration in blood) argatroban (GSK) as the anticoagulant at a ratio of 1 ml per 9 ml of blood. The PRP was isolated by centrifugation at 170 g for 12 minutes. The platelet poor plasma (PPP) was used as the blank for optical aggregometry. Compounds of the present invention in DMSO solution was preincubated with 250 μl PRP at 37° C. for 1 minute with stirring speed of 1000 rpm. Aggregation was initiated by addition of 2.5 μl of 1 mM ADP (Chrono-log, Havertown, Pa.) for a final ADP concentration of 10 uM. Platelet aggregation was monitored using Optical Aggregometer (Chrono-log, Havertown, Pa.) and the area under the curve (AUC) at 5 minute was measured. IC50 was calculated using vehicle control as 0% inhibition.
The platelet aggregation assay measures the in vitro antiplatelet activity of a compound in platelet rich plasma. The assay is sensitive to plasma protein binding, and is believed to be a better predictor of actual in vivo activity.

[3] = SPA, 0.3 nM [33P] 2MeS-ADP, Cheng-Prusoff, read-out: P2Y1 Ki (nM) using binding assay B

cloned human P2Y1 receptors, sequence (P47900 whole entry): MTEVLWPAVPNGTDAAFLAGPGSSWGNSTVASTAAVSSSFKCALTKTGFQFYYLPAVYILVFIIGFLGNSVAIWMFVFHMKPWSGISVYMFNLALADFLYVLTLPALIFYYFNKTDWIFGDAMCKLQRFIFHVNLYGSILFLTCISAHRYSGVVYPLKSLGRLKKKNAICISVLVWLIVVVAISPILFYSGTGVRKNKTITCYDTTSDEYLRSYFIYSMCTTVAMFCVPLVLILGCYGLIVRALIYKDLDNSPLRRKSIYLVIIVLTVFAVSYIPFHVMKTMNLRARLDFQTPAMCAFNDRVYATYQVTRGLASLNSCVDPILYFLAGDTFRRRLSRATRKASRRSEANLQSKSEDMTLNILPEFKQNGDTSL

Row | SMILES | Ki [1] [nM] | IC50 [2] [µM] | Ki [1, 3] [nM]
1 | CC(C)(C)CN1CCC2(CC1)CN(c1ccccc1Nc1nnc(-c3ccccc3)s1)c1c(O)ccc(C(F)(F)F)c12 [Example 1, 1′-Neopentyl-1-(2-(5-phenyl-1,3,4-thiadiazol-2-ylamino)phenyl)-4-(trifluoromethyl)spiro[indoline-3,4′-piperidin]-7-ol] | 10 | 1 | –
2 | CC(C)(C)CN1CCC2(CC1)CN(c1ccccc1Nc1nnc(-c3ccc(C(C)(C)C)cc3)s1)c1c(O)ccc(C(F)(F)F)c12 [Example 2, 1-(2-(5-(4-tert-Butylphenyl)-1,3,4-thiadiazol-2-ylamino)phenyl)-1′-neopentyl-4-(trifluoromethyl)spiro[indoline-3,4′-piperidin]-7-ol] | – | 0.9 | 26
3 | CC(C)(C)CN1CCC2(CC1)CN(c1ccccc1Nc1nnc(-c3ccc(C(F)(F)F)cc3)s1)c1c(O)ccc(C(F)(F)F)c12 [Example 3, 1′-Neopentyl-4-(trifluoromethyl)-1-(2-(5-(4-(trifluoromethyl)phenyl)-1,3,4-thiadiazol-2-ylamino)phenyl)spiro[indoline-3,4′-piperidin]-7-ol] | – | 0.5 | 16
4 | CC(C)(C)CN1CCC2(CC1)CN(c1ccccc1Nc1nnc(-c3ccc(F)cc3)s1)c1c(O)ccc(C(F)(F)F)c12 [Example 4, 1-(2-(5-(4-Fluorophenyl)-1,3,4-thiadiazol-2-ylamino)phenyl)-1′-neopentyl-4-(trifluoromethyl)spiro[indoline-3,4′-piperidin]-7-ol] | 15 | 2.2 | –
5 | CC(C)(C)CN1CCC2(CC1)CN(c1ccccc1Nc1nnc(-c3cccc(F)c3)s1)c1c(O)ccc(C(F)(F)F)c12 [Example 5, 1-(2-(5-(3-Fluorophenyl)-1,3,4-thiadiazol-2-ylamino)phenyl)-1′-neopentyl-4-(trifluoromethyl)spiro[indoline-3,4′-piperidin]-7-ol] | 12 | 1.6 | –
6 | CC(C)(C)CN1CCC2(CC1)CN(c1ccccc1Nc1nnc(-c3ccccn3)s1)c1c(O)ccc(C(F)(F)F)c12 [Example 6, 1′-Neopentyl-1-(2-(5-(pyridin-2-yl)-1,3,4-thiadiazol-2-ylamino)phenyl)-4-(trifluoromethyl)spiro[indoline-3,4′-piperidin]-7-ol] | 11 | 2.3 | –
7 | CC(C)(C)CN1CCC2(CC1)CN(c1ccccc1Nc1nnc(-c3ccc(C(F)(F)F)cn3)s1)c1c(O)ccc(Cl)c12 [Example 8, 4-Chloro-1′-neopentyl-1-(2-(5-(5-(trifluoromethyl)pyridin-2-yl)-1,3,4-thiadiazol-2-ylamino)phenyl)spiro[indoline-3,4′-piperidin]-7-ol] | 7 | 1.5 | –
8 | CC(C)(C)CN1CCC2(CC1)CN(c1ccccc1Nc1nnc(-c3ccncc3)s1)c1c(O)ccc(Cl)c12 [Example 10, 4-Chloro-1′-neopentyl-1-(2-((5-(pyridin-4-yl)-1,3,4-thiadiazol-2-yl)amino)phenyl)spiro[indoline-3,4′-piperidin]-7-ol] | 40.2 | 11.4 | –
9 | CC(C)(C)CN1CCC2(CC1)CN(c1ccccc1Nc1ncc(-c3ccccc3)s1)c1c(O)ccc(Cl)c12 [Example 11, 4-Chloro-1′-neopentyl-1-(2-(5-phenylthiazol-2-ylamino)phenyl)spiro[indoline-3,4′-piperidin]-7-ol] | 16 | 3.7 | –
10 | CC(C)(C)CN1CCC2(CC1)CN(c1ccccc1Nc1nnc(-c3cnc4ccccc4n3)s1)c1c(O)ccc(Cl)c12 [Example 16, 4-chloro-1′-neopentyl-1-(2-((5-(quinoxalin-2-yl)-1,3,4-thiadiazol-2-yl)amino)phenyl)spiro[indoline-3,4′-piperidin]-7-ol] | 66 | 17.7 | –
11 | COC(=O)c1nnc(Nc2ccccc2N2CC3(CCN(CC(C)(C)C)CC3)c3c(Cl)ccc(O)c32)s1 [Example 17, methyl 5-((2-(4-chloro-7-hydroxy-1′-neopentylspiro[indoline-3,4′-piperidin]-1-yl)phenyl)-amino)-1,3,4-thiadiazole-2-carboxylate] | 48 | 7.2 | –
12 | Cn1nc(C(C)(C)C)cc1-c1nnc(Nc2ccccc2N2CC3(CCN(CC(C)(C)C)CC3)c3c(Cl)ccc(O)c32)s1 [Example 18, 1-(2-((5-(3-(tert-butyl)-1-methyl-1H-pyrazol-5-yl)-1,3,4-thiadiazol-2-yl)amino)phenyl)-4-chloro-1′-neopentylspiro[indoline-3,4′-piperidin]-7-ol] | 33 | 1.8 | –
13 | CC(C)(C)CN1CCC2(CC1)CN(c1ccccc1Nc1nnc(-c3ccccc3Cl)s1)c1c(O)ccc(Cl)c12 [Example 19, 4-chloro-1-(2-((5-(2-chloro-phenyl)-1,3,4-thiadiazol-2-yl)amino)phenyl)-1′-neopentylspiro[indoline-3,4′-piperidin]-7-ol] | – | 10.7 | 28
14 | CC(C)(C)CN1CCC2(CC1)CN(c1ccccc1Nc1nnc(-c3cccc(Cl)c3)s1)c1c(O)ccc(Cl)c12 [Example 20, 4-chloro-1-(2-((5-(3-chloro-phenyl)-1,3,4-thiadiazol-2-yl)amino)phenyl)-1′-neopentylspiro[indoline-3,4′-piperidin]-7-ol] | – | 2.6 | 16
15 | CC(C)(C)CN1CCC2(CC1)CN(c1ccccc1Nc1nnc(-c3ccc(Cl)cc3)s1)c1c(O)ccc(Cl)c12 [Example 21, 4-chloro-1-(2-((5-(4-chloro-phenyl)-1,3,4-thiadiazol-2-yl)amino)phenyl)-1′-neopentylspiro[indoline-3,4′-piperidin]-7-ol] | – | 1.3 | 13
16 | Cc1cccc(-c2nnc(Nc3ccccc3N3CC4(CCN(CC(C)(C)C)CC4)c4c(Cl)ccc(O)c43)s2)c1 [Example 22, 4-chloro-1′-neopentyl-1-(2-((5-(m-tolyl)-1,3,4-thiadiazol-2-yl)amino)phenyl)spiro[indoline-3,4′-piperidin]-7-ol] | 22 | 4 | –
17 | CC(C)(C)CN1CCC2(CC1)CN(c1ccccc1Nc1nnc(-c3cc(Cl)cc(Cl)c3)s1)c1c(O)ccc(Cl)c12 [Example 23, 4-chloro-1-(2-((5-(3,5-dichloro-phenyl)-1,3,4-thiadiazol-2-yl)amino)phenyl)-1′-neopentylspiro[indoline-3,4′-piperidin]-7-ol] | 19 | 3.4 | –
18 | CC(C)(C)CN1CCC2(CC1)CN(c1ccccc1Nc1nnc(-c3cc(F)ccc3Cl)s1)c1c(O)ccc(Cl)c12 [Example 24, 4-chloro-1-(2-((5-(2-chloro-5-fluorophenyl)-1,3,4-thiadiazol-2-yl)amino)phenyl)-1′-neopentylspiro[indoline-3,4′-piperidin]-7-ol] | 28 | 4.5 | –
19 | CC(C)(C)CN1CCC2(CC1)CN(c1ccccc1Nc1nnc(-c3ccc(Cl)c(Cl)c3)s1)c1c(O)ccc(Cl)c12 [Example 25, 4-chloro-1-(2-((5-(3,4-dichloro-phenyl)-1,3,4-thiadiazol-2-yl)amino)phenyl)-1′-neopentylspiro[indoline-3,4′-piperidin]-7-ol] | 19 | 3.7 | –
20 | CC(C)(C)CN1CCC2(CC1)CN(c1ccccc1Nc1nnc(-c3ccc(OC(F)(F)F)cc3)s1)c1c(O)ccc(Cl)c12 [Example 26, 4-chloro-1′-neopentyl-1-(2-((5-(4-(trifluoromethoxy)phenyl)-1,3,4-thiadiazol-2-yl)amino)phenyl)spiro[indoline-3,4′-piperidin]-7-ol] | – | 0.9 | 13
21 | CC(C)(C)CN1CCC2(CC1)CN(c1ccccc1Nc1nnc(-c3cccc(C(F)(F)F)c3)s1)c1c(O)ccc(Cl)c12 [Example 27, 4-chloro-1′-neopentyl-1-(2-((5-(3-(trifluoromethyl)phenyl)-1,3,4-thiadiazol-2-yl)amino)-phenyl)spiro[indoline-3,4′-piperidin]-7-ol] | 24 | 3.2 | –
22 | CC(C)(C)CN1CCC2(CC1)CN(c1ccccc1Nc1nnc(-c3ccccn3)s1)c1c(O)ccc(Cl)c12 [Example 28, 4-chloro-1′-neopentyl-1-(2-((5-(pyridin-2-yl)-1,3,4-thiadiazol-2-yl)amino)phenyl)-spiro[indoline-3,4′-piperidin]-7-ol] | 6.8 | 5.8 | –
23 | CC(C)(C)CN1CCC2(CC1)CN(c1ccccc1Nc1nnc(-c3cccc(F)c3)s1)c1c(O)ccc(Cl)c12 [Example 29, 4-chloro-1-(2-((5-(3-fluoro-phenyl)-1,3,4-thiadiazol-2-yl)amino)phenyl)-1′-neopentylspiro[indoline-3,4′-piperidin]-7-ol] | 23 | 2.4 | –
24 | CC(C)(C)CN1CCC2(CC1)CN(c1ccccc1Nc1nnc(-c3ccc(OC(F)(F)F)cc3)s1)c1c(O)ccc(F)c12 [Example 30, 4-fluoro-1′-neopentyl-1-(2-((5-(4-(trifluoromethoxy)-phenyl)-1,3,4-thiadiazol-2-yl)amino)phenyl)spiro[indoline-3,4′-piperidin]-7-ol] | 5 | 2 | –
